The results in this text go back to article PMC12207533, “Structure-guided design of a methyltransferase-like 3 (METTL3) proteolysis targeting chimera (PROTAC) incorporating an indole–nicotinamide chemotype” (RSC Medicinal Chemistry, 2025).

The target in one test is T1, METTL3/14 (Homo sapiens, UniProt Q86U44).
T1 construct: human METTL3 (UniProt: Q86U44, aa 252–580); Strep-tag II (C); made in house; host or cells: E. coli BL21 (DE3)
As to the kind of experiment: Fluorescence polarization (FP) displacement assay with METTL3/14. It counts as binding. As for the experimental part:
Fluorescence polarization (FP) displacement assays with METTL3/14 (ref. [36]) and VCB[38–40] were performed following previous protocols with slight adaptations. All experiments were conducted in black Greiner 96-well half-area plates using a Tecan Spark 10 M plate reader, equipped with polarization filters coupled to a monochromator setup (λex = 480 nm, λem = 530 nm). Reaction mixtures for METTL3/14 contained 300 nM recombinant enzyme, 20 nM FAM-labelled displacement tracer (STM-FL[36]), and the test compounds at varying concentrations in 25 mM Tris HCl, pH 7.5, 100 mM NaCl, and 10% DMSO. For VCB, the mixtures contained 40 nM recombinant enzyme, 10 nM FAM-labelled probe (FAM-DEALAHyp[…], Tocris Bioscience), and the tested compounds, at varying concentrations, in 50 mM Tris, pH 7.5, 200 mM NaCl, 2 mM DTT, and 10% DMSO. […] All measurements were performed at least as technical triplicates. Polarization values (mP) were determined from polarization-specific parallel and orthogonal fluorescence intensities using the Tecan in-built calculation routine. Using GraphPad Prism 8.0.1, the FP values were normalized, and KD values were calculated using a 4-parameter Hill equation: y(% probe bound) = bottom + ([ligand]slope) × (top–bottom)/([ligand]slope + KD slope).
On the technique in general: Fluorescence polarisation rises when a labelled molecule tumbles more slowly, as on binding a larger partner.

In a further test the test system is MOLM-13 cells. In words: Synergy analysis (ZIP, SynergyFinder+) of AF151 and venetoclax on cell viability. It counts as cell-based, human. As to conditions: co-treatment with venetoclax, 72 h. As for the experimental part:
To determine cell viability, MOLM-13 cells were treated with the indicated compounds in a 1 : 1 serial dilution, with pure DMSO (final: 0.1%) as the negative control. Briefly, 1000 cells were seeded in black Greiner half-area 96-well plates and incubated for 72 h with inhibitors from DMSO stocks under standard cultivation conditions. Then, Promega CellTiter Glo 2.0 reagent was added to each well according to the manufacturer's protocols, and luminescence was measured using a Tecan Spark 10 M. Experiments were conducted in technical triplicate. Data was normalized to the DMSO control and analyzed with GraphPad Prism 8.0.1 to determine EC50 values. Synergistic effects of venetoclax and AF151 on cell MOLM-13 viability were conducted accordingly, with dilution series of both compounds analyzed using the SynergyFinder+ webtoolkit.[57]

The target of the next test is T2, METTL3 (Homo sapiens, UniProt Q86U44).
T2 construct: endogenous in cells; host or cells: MOLM-13
T2 sequence (Q86U44 whole entry): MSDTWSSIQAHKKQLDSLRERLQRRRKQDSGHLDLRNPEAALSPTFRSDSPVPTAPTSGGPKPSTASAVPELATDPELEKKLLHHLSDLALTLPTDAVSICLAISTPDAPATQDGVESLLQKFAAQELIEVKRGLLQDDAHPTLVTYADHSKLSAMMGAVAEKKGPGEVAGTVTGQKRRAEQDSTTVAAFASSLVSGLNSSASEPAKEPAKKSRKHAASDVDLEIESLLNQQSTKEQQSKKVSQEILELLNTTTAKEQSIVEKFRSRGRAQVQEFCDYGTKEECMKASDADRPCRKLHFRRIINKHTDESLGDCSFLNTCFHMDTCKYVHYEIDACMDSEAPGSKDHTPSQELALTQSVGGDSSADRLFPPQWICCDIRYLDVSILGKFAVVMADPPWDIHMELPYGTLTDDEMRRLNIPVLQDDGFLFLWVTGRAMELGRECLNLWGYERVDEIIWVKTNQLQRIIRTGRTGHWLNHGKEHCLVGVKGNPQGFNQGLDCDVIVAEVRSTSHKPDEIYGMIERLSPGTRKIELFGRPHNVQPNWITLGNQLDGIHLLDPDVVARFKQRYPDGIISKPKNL
In words: Immunoblotting of METTL3 protein levels in MOLM-13 cells. It counts as cell-based. The protocol: MOLM-13 were seeded in 12-well cell culture plates at a density of 1 × 10^6 cells per mL and treated with DMSO (final: 0.1%) or different concentrations of PROTAC degraders in DMSO at the indicated times. Treatments were conducted in biological triplicate with varying passages of MOLM-13 cells. The cells were harvested by centrifugation at 500g for 5 min and washed with PBS. The cells were lysed with RIPA lysis buffer with the addition of protease inhibitor (1× cOMPLETE), and insoluble cellular parts were separated by centrifugation (12 000g for 10 min), subsequently, the supernatant was boiled with 1× Laemmli sample buffer (Carl Roth) for 5 min at 95 °C. Proteins were separated by SDS–PAGE on 4–20% Criterion™ TGX™ Precast Protein Gels (Bio-Rad) and transferred to Amersham™ Protean® 0.45 μm nitrocellulose membrane (Cytiva) using semi-dry transfer (25 V, 1 A, Towbin buffer). The membrane was blocked with 5% milk (Carl Roth) in TBST buffer and incubated with the following primary antibodies: Anti-METTL3 (1 : 1000, Abcam, ab195352), anti-METTL14 (1 : 1000, Abcam, ab220030), anti-Bcl2 (1 : 1000, Cell Signaling Technology [CST], EPR16891), anti-Mcl-1 (1 : 1000, CST, 5453 T), anti-Bcl-XL (1 : 1000, CST, 2764 T), anti-vinculin (1 : 1000, CST, 13901) or anti-GAPDH (1 : 5000, CST, D17C4) overnight at 4 °C. Subsequently, the membrane was incubated for 1 h at RT with secondary antibodies: anti-rabbit (1 : 2000, VWR, NA934) or anti-mouse (1 : 2000, VWR, 102646-160). The protein bands were detected via chemiluminescence using Pierce™ ECL western blotting substrate and a Fusion FX imaging system (Vilber). The ImageLab software (Bio-Rad) was used for band quantification.

T1 sequence (Q86U44 252-580): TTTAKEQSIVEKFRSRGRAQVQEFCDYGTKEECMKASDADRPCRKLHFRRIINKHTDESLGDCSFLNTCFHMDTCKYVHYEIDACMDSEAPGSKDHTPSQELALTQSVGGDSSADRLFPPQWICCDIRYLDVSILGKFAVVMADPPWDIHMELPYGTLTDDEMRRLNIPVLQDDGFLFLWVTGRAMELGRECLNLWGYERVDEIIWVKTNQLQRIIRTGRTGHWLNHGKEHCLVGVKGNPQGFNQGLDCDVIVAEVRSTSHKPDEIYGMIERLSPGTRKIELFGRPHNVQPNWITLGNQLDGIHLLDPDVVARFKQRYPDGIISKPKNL
T1 sequence (Q9HCE5 108-444 partner limits assumed): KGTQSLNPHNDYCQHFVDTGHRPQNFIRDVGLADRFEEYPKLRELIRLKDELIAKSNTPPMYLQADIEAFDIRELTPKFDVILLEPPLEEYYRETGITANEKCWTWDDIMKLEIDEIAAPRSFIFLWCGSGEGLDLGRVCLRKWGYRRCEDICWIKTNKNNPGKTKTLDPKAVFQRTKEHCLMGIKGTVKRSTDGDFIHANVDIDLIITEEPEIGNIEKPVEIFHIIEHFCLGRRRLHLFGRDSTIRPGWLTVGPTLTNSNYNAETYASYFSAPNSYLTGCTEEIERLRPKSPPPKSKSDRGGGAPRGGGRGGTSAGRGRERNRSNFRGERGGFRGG

Usually Kd stands for the free concentration of one partner at which half of the binding sites on the other are occupied at equilibrium, for simple one-to-one binding. As a reminder, the DC50 is the concentration at which degradation of the target reaches its halfway point. The Dmax is the greatest extent of degradation seen. A low value points to a partial loss of target. Regarding `Cc1ncsc1-c1ccc(CNC(=O)[C@@H]2C[C@@H](O)CN2C(=O)[C@@H](NC(=O)CCc2ccc(-c3ccc(COc4cncc(C(=O)NCc5ccc6cc(CN7CCC(C)(C)CC7)[nH]c6c5)c4)cc3)cc2)C(C)(C)C)cc1` [compound 41], on METTL3/14, binding was put at a Kd of 159 ± 26 nM. In the test on MOLM-13 cells, the “maximum ZIP synergy score” value was 28.87 and the “mean ZIP synergy score” value is given as 3.38. For the same molecule, on METTL3 (2 μM, time course, MOLM-13), the “time for which maximal METTL3 degradation is maintained” value was “at least 48 h” and the “time of maximal METTL3 degradation effect” value came out at 24 h. For the same molecule, the METTL3 reduction entry at METTL3 (2 μM, within the first 6 h of treatment, MOLM-13) is “over 50%”. Also, the “METTL3 degradation (Western blot)” value at METTL3 (MOLM-13, 1 μM, 16 h) is “significant degradation”. Further, on METTL3 (MOLM-13, 16 h), the “concentration of hook effect (METTL3 degradation decreased)” value was > 5 µM. For the same molecule, on METTL3 (MOLM-13, 16 h treatment, read-out: DC50 (METTL3 degradation)), the DC50 was 430 nM. Besides, at METTL3 (MOLM-13, MLN4924 1 μM), the “METTL3 degradation on co-treatment with MLN4924” value is “suppressed METTL3 degradation”. Besides, the Dmax at 2.5 µM on METTL3 (MOLM-13, MOLM-13, 16 h, maximal degradation occurred at 2.5 μM) came out at 95%. Also, the “METTL3 degradation on co-treatment with STM2457” value on METTL3 (MOLM-13, STM2457 20 μM) is “inhibited degradation”. Further, the “METTL3 degradation on co-treatment with VH032” value on METTL3 (MOLM-13, VH032 10 μM) is given as “suppressed METTL3 degradation”. Further, the “METTL3 degradation on co-treatment with bortezomib” value on METTL3 (MOLM-13, bortezomib 1 μM) is “suppressed METTL3 degradation”.
